Results on 19 compounds are retold here after patent publication US20240368135A1 (VERTEX PHARMACEUTICALS INCORPORATED, priority 2021, published 2024).

The target of this test is human NaV 1.8 (Homo sapiens, UniProt Q9Y5Y9). Put plainly: E-VIPR assay detecting and measuring NaV inhibition properties. In kind it is cell-based. The settings on record: HEK cells expressing truncated human NaV 1.8. Put shortly: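 Membrane potential was followed by coumarin/oxonol FRET during electrical field stimulation of matrigel-seeded HEK cells carrying truncated human NaV1.8 plus KIR2.1. Dosing used 11 points, 3-fold steps, top 300 nM final, 0.625% DMSO, with or without 25% human serum.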
Sequence of human NaV 1.8 (Q9Y5Y9 126-399 limits assumed): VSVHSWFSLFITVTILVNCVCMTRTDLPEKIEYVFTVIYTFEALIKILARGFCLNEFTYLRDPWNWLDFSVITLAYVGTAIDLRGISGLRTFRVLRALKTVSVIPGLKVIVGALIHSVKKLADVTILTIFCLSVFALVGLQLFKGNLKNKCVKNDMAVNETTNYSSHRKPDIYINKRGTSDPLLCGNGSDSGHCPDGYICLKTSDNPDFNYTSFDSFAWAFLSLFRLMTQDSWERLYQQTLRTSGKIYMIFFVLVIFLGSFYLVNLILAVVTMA
Sequence of human NaV 1.8 (Q9Y5Y9 660-890 limits assumed): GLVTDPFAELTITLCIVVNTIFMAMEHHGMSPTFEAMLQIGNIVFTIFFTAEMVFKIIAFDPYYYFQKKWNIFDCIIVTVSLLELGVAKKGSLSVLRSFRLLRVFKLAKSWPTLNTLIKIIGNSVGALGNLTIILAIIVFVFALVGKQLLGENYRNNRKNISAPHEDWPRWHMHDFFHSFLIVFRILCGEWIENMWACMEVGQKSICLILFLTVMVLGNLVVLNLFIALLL
Sequence of human NaV 1.8 (Q9Y5Y9 1148-1722 limits assumed): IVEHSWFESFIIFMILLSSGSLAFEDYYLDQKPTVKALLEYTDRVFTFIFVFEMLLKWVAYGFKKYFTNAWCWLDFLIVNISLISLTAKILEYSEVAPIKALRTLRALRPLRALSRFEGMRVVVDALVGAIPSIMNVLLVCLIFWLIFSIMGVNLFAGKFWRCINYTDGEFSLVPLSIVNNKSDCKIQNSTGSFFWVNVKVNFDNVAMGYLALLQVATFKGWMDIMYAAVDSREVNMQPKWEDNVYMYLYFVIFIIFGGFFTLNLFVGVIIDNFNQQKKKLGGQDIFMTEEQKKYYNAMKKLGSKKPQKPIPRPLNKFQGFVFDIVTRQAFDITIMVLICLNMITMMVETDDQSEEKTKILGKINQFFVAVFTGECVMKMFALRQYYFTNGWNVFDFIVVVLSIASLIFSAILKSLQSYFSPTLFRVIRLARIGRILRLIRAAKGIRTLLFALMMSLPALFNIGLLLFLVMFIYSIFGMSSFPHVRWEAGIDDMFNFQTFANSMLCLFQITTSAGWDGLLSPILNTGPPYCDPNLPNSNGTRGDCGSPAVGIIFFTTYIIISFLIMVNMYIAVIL

Setting [1] is: no human serum, read-out: IC50 in the E-VIPR Assay.
Setting [2] is: in the presence of human serum (compound numbers followed by *), read-out: IC50 in the E-VIPR Assay, performed in the presence of human serum.

Where a name gives a salt, the structure may show the parent alone. Read-outs that look alike come from different tables or passages of the source.

Consider `COc1c([C@H]2[C@H](C(=O)Nc3ccnc(C4COCCN4)c3)O[C@@](C)(C(F)(F)F)[C@H]2C)ccc(F)c1F` (single isomer, unassigned) [Compound 342, rel-(2R*,3S*,4S*,5R*)-3-(3,4-difluoro-2-methoxyphenyl)-4,5-dimethyl-N-(2-(morpholin-3-yl)pyridin-4-yl)-5-(trifluoromethyl)-tetrahydrofuran-2-carboxamide], for which the IC50 under setting [1] was 10 to 100 nM.

For the compound `Cc1nocc1NC(=O)[C@@H]1O[C@@](C)(C(F)(F)F)[C@@H](C)[C@H]1c1ccc(F)c(F)c1OCCNC1COC1` [Compound 631, (2R,3S,4S,5R)-3-(3,4-difluoro-2-(2-(oxetan-3-ylamino)ethoxy)phenyl)-4,5-dimethyl-N-(3-methylisoxazol-4-yl)-5-(trifluoromethyl)tetrahydrofuran-2-carboxamide], under setting [1], the IC50 is 10 to 100 nM. The same measure, in the same setting: with `COc1ccc(NC(=O)[C@@H]2O[C@@](C)(C(F)(F)F)[C@@H](C)[C@H]2c2ccc(F)c(C(F)F)c2OC)cn1` (single isomer, unassigned) [Compound 167] the figure was 10 to 100 nM.

Take `C[C@H]1[C@@H](c2ccc(F)c(F)c2OCC2(F)COC2)[C@H](C(=O)Nc2ccnc(CO)c2)O[C@@]1(C)C(F)(F)F` [Compound 645, (2R,3S,4S,5R)-3-(3,4-difluoro-2-((3-fluorooxetan-3-yl)methoxy)phenyl)-N-(2-(hydroxymethyl)pyridin-4-yl)-4,5-dimethyl-5-(trifluoromethyl)tetrahydrofuran-2-carboxamide]: the IC50 under setting [1] lay within 10 to 100 nM.

`C[C@H]1[C@@H](c2ccc(F)c(F)c2OCCO)[C@H](C(=O)Nc2ccnc(C(F)F)c2)O[C@@]1(C)C(F)(F)F` [Compound 566, (2R,3S,4S,5R)-3-(3,4-difluoro-2-(2-hydroxyethoxy)phenyl)-N-(2-(difluoromethyl)pyridin-4-yl)-4,5-dimethyl-5-(trifluoromethyl)tetrahydrofuran-2-carboxamide]: under setting [1], the IC50 was under 10 nM. Same read-out and setting: with `C[C@H]1[C@@H](c2ccc(F)c(F)c2OCC2COC2)[C@H](C(=O)Nc2ccc(C(C)(C)O)nc2)O[C@@]1(C)C(F)(F)F` [Compound 581, (2R,3S,4S,5R)-3-(3,4-difluoro-2-(oxetan-3-ylmethoxy)phenyl)-N-(6-(2-hydroxypropan-2-yl)pyridin-3-yl)-4,5-dimethyl-5-(trifluoromethyl)tetrahydrofuran-2-carboxamide (TFA salt)] the figure was 100 to 1000 nM. With `COc1c([C@@H]2[C@@H](C(=O)Nc3cc[n+]([O-])c(C(O)CO)c3)O[C@](C)(C(F)(F)F)[C@@H]2C)ccc(F)c1C` (relative stereo) [Compound 138, rel-2-(1,2-dihydroxyethyl)-4-((2S,3R,4R,5S)-3-(4-fluoro-2-methoxy-3-methylphenyl)-4,5-dimethyl-5-(trifluoromethyl)tetrahydrofuran-2-carboxamido)pyridine 1-oxide], the IC50 under setting [2] was at least 1000 nM. For `COc1c([C@@H]2C[C@](C)(C(F)(F)F)O[C@H]2C(=O)Nc2ccnc([C@@H](O)CO)c2)ccc(F)c1C` (single isomer, unassigned) [Compound 706], under setting [1], the IC50 was 10 to 100 nM. With `COc1c(C2C(C(=O)Nc3ccnc(C(O)C(C)O)c3)OC(C)(C(F)(F)F)C2C)ccc(F)c1C` (single isomer, unassigned) [Compound 142], under setting [2], the IC50 was at least 1000 nM. Take `C[C@H]1[C@@H](c2ccc(F)c(F)c2O[C@H]2C[C@@H](O)C2)[C@H](C(=O)Nc2cncc(F)c2)O[C@@]1(C)C(F)(F)F` [Compound 660, (2R,3S,4S,5R)-3-(3,4-difluoro-2-((1S,3R)-3-hydroxycyclobutoxy)phenyl)-N-(5-fluoropyridin-3-yl)-4,5-dimethyl-5-(trifluoromethyl)tetrahydrofuran-2-carboxamide]: the half-maximal inhibitory concentration (IC50) under setting [1] fell in the range of 10 to 100 nM. Same read-out and setting: with `CN=S(C)(=O)c1cc(NC(=O)C2OC(C)(C(F)(F)F)C(C)C2c2ccc(F)c(C)c2OC)ccn1` (stereo not shown) [Compound 152, N-[2-(N,S-dimethylsulfonimidoyl)-4-pyridyl]-3-(4-fluoro-2-methoxy-3-methyl-phenyl)-4,5-dimethyl-5-(trifluoromethyl)tetrahydrofuran-2-carboxamide] the figure was under 10 nM. `COc1c([C@H]2[C@H](C(=O)Nc3ccnc(C(C)(O)CO)c3)OC(C)(C)[C@H]2C)ccc(F)c1F` (single isomer, unassigned) [Compound 732]: the IC50 under setting [1] lay within 10 to 100 nM. Same read-out and setting: with `COc1c([C@H]2[C@H](C(=O)Nc3ccc(CCS(C)(=O)=O)nc3)O[C@@](C)(C(F)(F)F)[C@H]2C)ccc(F)c1F` [Compound 194, (2R,3S,4S,5R)-3-(3,4-difluoro-2-methoxyphenyl)-4,5-dimethyl-N-(6-(2-(methylsuflonyl)ethyl)pyridin-3-yl)-5-(trifluoromethyl)tetrahydrofuran-2-carboxamide] the figure was 10 to 100 nM. On the same count and under the same terms, with `COc1c([C@H]2[C@H](C(=O)Nc3ccnc(N4C[C@@H]5C[C@@H](N5)C4=O)c3)O[C@@](C)(C(F)(F)F)[C@H]2C)ccc(F)c1F` (single isomer, unassigned) [Compound 492, rel-(2R*,3S*,4S*,5R*)-3-(3,4-difluoro-2-methoxyphenyl)-4,5-dimethyl-N-(2-((1R,5S)-2-oxo-3,6-diazabicyclo[3.1.1]heptan-3-yl)pyridin-4-yl)-5-(trifluoromethyl)tetrahydrofuran-2-carboxamide] the figure was 10 to 100 nM; with `COc1c([C@H]2[C@H](C(=O)Nc3ccc(C(=O)NS(C)(=O)=O)nc3)O[C@@](C)(C(F)(F)F)[C@H]2C)ccc(F)c1F` [Compound 375, 5-[[(2R,3S,4S,5R)-3-(3,4-difluoro-2-methoxy-phenyl)-4,5-dimethyl-5-(trifluoromethyl)tetrahydrofuran-2-carbonyl]amino]-N-methylsulfonyl-pyridine-2-carboxamide], 100 to 1000 nM; with `CNCc1c([C@H]2[C@H](C(=O)Nc3cn(C(F)F)nc3C)O[C@@](C)(C(F)(F)F)[C@H]2C)ccc(F)c1F` [Compound 671, (2R,3S,4S,5R)-3-(3,4-difluoro-2-((methylamino)methyl)phenyl)-N-(1-(difluoromethyl)-3-methyl-1H-pyrazol-4-yl)-4,5-dimethyl-5-(trifluoromethyl)tetrahydrofuran-2-carboxamide], 100 to 1000 nM. On the same count and under the same terms, with `COc1nc(C(F)F)ccc1[C@H]1[C@H](C(=O)Nc2ccc(C(N)=O)nc2)O[C@@](C)(C(F)(F)F)[C@H]1C` (stereo in doubt) [Compound 734, rel-5-((2R,3S,4S,5R)-3-(6-(difluoromethyl)-2-methoxypyridin-3-yl)-4,5-dimethyl-5-(trifluoromethyl)tetrahydrofuran-2-carboxamido)picolinamide] the figure was 100 to 1000 nM.

For `C[C@@H]1[C@H](c2ccc(F)c(F)c2OC(F)F)[C@@H](C(=O)Nc2ccc(CCO)nc2)O[C@]1(C)C(F)(F)F` (single isomer, unassigned) [Compound 459], under setting [1], the IC50 was at least 1000 nM. Still for that read-out and setting: under `Cc1nn(C)cc1NC(=O)[C@@H]1O[C@@](C)(C(F)(F)F)[C@@H](C)[C@H]1c1ccc(F)c(F)c1OCCO` [Compound 557, (2R,3S,4S,5R)-3-(3,4-difluoro-2-(2-hydroxyethoxy)phenyl)-N-(1,3-dimethyl-1H-pyrazol-4-yl)-4,5-dimethyl-5-(trifluoromethyl)tetrahydrofuran-2-carboxamide] stands 10 to 100 nM.
